Test results published in patent US20190060296A1, “DISCOVERY OF SMALL MOLECULES THAT TARGET THE ANDROGEN RECEPTOR AND USES” (Massachusetts Institute of Technology, priority 2017, published 2019).
pIC50: −log10 of the molar value.

Target: T1, AR-v7 (Homo sapiens, UniProt P10275)
T1 construct: expressed in transfected cells
T1 sequence (P10275 1-644 isoform P10275-3): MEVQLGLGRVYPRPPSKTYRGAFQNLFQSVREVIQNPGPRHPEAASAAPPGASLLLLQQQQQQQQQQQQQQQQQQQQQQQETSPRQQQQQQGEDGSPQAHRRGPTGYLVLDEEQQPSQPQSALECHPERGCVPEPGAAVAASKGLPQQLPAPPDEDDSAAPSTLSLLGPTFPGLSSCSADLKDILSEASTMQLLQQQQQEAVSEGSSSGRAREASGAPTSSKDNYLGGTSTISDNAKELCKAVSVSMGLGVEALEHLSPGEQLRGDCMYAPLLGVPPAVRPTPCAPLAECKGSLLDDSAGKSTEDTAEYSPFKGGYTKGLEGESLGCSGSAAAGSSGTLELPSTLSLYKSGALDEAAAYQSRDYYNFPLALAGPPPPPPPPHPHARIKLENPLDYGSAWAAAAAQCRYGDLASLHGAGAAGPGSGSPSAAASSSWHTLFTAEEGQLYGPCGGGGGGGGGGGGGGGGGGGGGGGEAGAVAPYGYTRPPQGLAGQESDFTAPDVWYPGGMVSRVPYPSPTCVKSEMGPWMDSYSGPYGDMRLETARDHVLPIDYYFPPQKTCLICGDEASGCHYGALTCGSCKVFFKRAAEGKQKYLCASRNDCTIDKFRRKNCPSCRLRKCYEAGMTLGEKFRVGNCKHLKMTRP
Assay: dual luciferase reporter assay, stable LNCaP cell line with AR-v7 under DOX control and MMTV-driven firefly luciferase
Assay type: cell-based
Details: Reporter Assay at 24 hours; dose response starting at 50 μM, serially diluted 1:1; LNCaP cells
From the text: CMV-driven Renilla luciferase is also included as a control. The relative luciferase activity is the firefly luciferase activity normalized to the Renilla luciferase activity. A “dual-reporter assay” is conceptually similar to the single reporter assay described above, and can correct for experimental variation (e.g., cell number, transfection efficiency, etc.). In the case of a dual-reporter assay, a “reporter system” is used, where cells are transfected with two plasmids, the first plasmid comprising the regulatory gene of interest and a first reporter, and the second plasmid comprising a constitutive promoter and a second reporter, wherein the second reporter and the first reporter have biologically distinct activities. The ratio of the first reporter activity (e.g., controlled by the regulatory gene of interest) relative to the second reporter activity (e.g., controlled by the constitutive promoter) corrects for experimental variation. […] In certain embodiments, one or more compounds selected from the SMM screen are submitted to a screen comprising a dual-luciferase assay, the dual-luciferase assay further comprising (i) a first vector comprising a first promoter and a first reporter and (ii) a second vector comprising a second promoter and a second reporter. In certain embodiments, the first vector comprises a first promoter and a first reporter, wherein the first promoter is the MMTV promoter and the first reporter is firefly luciferase. Activation of the androgen receptor, or variant thereof, will promote increased expression of the MMTV-driven firefly luciferase. In certain embodiments, the second vector comprises a second promoter and a second reporter, wherein the second promoter is the cytomegalovirus (CMV) promoter and the second reporter is Renilla luciferase. The CMV promoter is constitutively activated, leading to a basal expression level of Renilla luciferase that serves as a control and can be used to normalize the MMTV-driven firefly luciferase expression level. […] In an embodiment, the first luciferase is firefly luciferase. In an embodiment, the second luciferase is Renilla luciferase. […] In certain embodiments, the firefly luciferase is under control of an MMTV promoter that contains one or more androgen response element (ARE). […] In total, 50,000 molecules were screened against the androgen receptor variant AR-v7 (exons 1-3 truncate of AR-FL) using a small molecule microarray (SMM) (see FIG. 1). […] PSA was used as a readout for both AR-v7 and AR activity in the qPCR assay in LNCaP cells. Selected SMM assay positives were administered to cells at two doses (10 and 30 μM) and PSA expression was evaluated using the Single Shot qPCR kit (BioRad) (see FIG. 2).

| SMILES | pIC50 |
| --- | --- |
| O=C(NCC[C@@H]1C[C@@H]2C=C[C@H]1C2)c1cccc(OC2CCN(C(=O)C3CC3)CC2)c1 (relative stereo) [KI-ARv-01, N-{2-[(1S*,2S*,4S*)-bicyclo[2.2.1]hept-5-en-2-yl]ethyl}-3-{[1-(cyclopropylcarbonyl)-4-piperidinyl]oxy}benzamide] | 5.27 |
| Fc1ccc(N2CCCN(CC3[C@H]4CNC[C@@H]34)CC2)cc1 (relative stereo) [KI-ARv-04, (1R*,5S*,6r)-6-{[4-(4-fluorophenyl)-1,4-diazepan-1-yl]methyl}-3-azabicyclo[3.1.0]hexane] | 4.95 |
| CS(=O)(=O)N1CCC(Oc2cccc(C(=O)NCC[C@@H]3C[C@@H]4C=C[C@H]3C4)c2)CC1 (relative stereo) [KI-ARv-08, N-{2-[(1S*,2S*,4S*)-bicyclo[2.2.1]hept-5-en-2-yl]ethyl}-3-{[1-(methylsulfonyl)-4-piperidinyl]oxy}benzamide] | 4.61 |
| COc1ccc(N2CCN(C(=O)c3sc4ncnc(NC[C@H]5C[C@@H]6C=C[C@H]5C6)c4c3C)CC2)cc1 (relative stereo) [KI-ARv-09, N-[(1R*,2S*,4R*)-bicyclo[2.2.1]hept-5-en-2-ylmethyl]-6-{[4-(4-methoxyphenyl)-1-piperazinyl]carbonyl}-5-methylthieno[2,3-d]pyrimidin-4-amine] | < 4.30 |
| Cc1c(C(=O)NCc2ccncc2)sc2ncnc(NC[C@H]3C[C@@H]4C=C[C@H]3C4)c12 (relative stereo) [RO3682, 4-{[(1R*,2S*,4R*)-bicyclo[2.2.1]hept-5-en-2-ylmethyl]amino}-5-methyl-N-(4-pyridinylmethyl)thieno[2,3-d]pyrimidine-6-carboxamide] | 4.90 |
| Cc1c(C(=O)N(C)Cc2cccc3ncccc23)sc2ncnc(NCC3C[C@@H]4C=C[C@H]3C4)c12 (stereo partly drawn) [KI-ARv-02, 4-((((1R,4R)-bicyclo[2.2.1]hept-5-en-2-yl)methyl)amino)-N,5-dimethyl-N-(quinolin-5-ylmethyl)thieno[2,3-d]pyrimidine-6-carboxamide] | 5.16 |
| CCNc1ncc(-c2cc(-c3cc(C)sc3C)nc(N)c2C#N)cn1 [KI-ARv-05, 2-amino-6-(2,5-dimethyl-3-thienyl)-4-[2-(ethylamino)pyrimidin-5-yl]nicotinonitrile] | 4.30 |
| Cc1cc(N2CCC(NCc3cccc(N4CCCC4)c3)CC2)nc(N)n1 [KI-ARv-06, 4-methyl-6-{4-[(3-pyrrolidin-1-ylbenzyl)amino]piperidin-1-yl}pyrimidin-2-amine] | 4.83 |
